Where a SMILES comes first, the peptide text is derived from it. Bridges are numbered along the chain shown (N, C = ends). [ ]: non-standard residue; d: D form. hArg = N=C(N)NCCCC[C@H](N)C(=O)O; Mpa = O=C(O)CCS

Consider two molecules from patent US20230393120A1, “A HUMAN VASCULAR INJURY-ON-A-CHIP MODEL OF HEMOSTASIS” (THE TRUSTEES OF THE UNIVERSITY OF PENNSYLVANIA, priority 2020, published 2023).

This test relates to injury-induced platelet and fibrin deposition (hemostatic plug formation), human whole blood. The test is described as follows: Drug testing in the vascular injury-on-a-chip perfused with drug-containing whole blood. It counts as cell-based. From the text: Human vascular injury-on-a-chip as a drug screening platform: anticoagulants and antiplatelet agents can be used for treating or preventing thrombotic events in the arterial and venous circulations. However, anticoagulants and antiplatelet agents can increase the risk of bleeding, especially when used in combination. The disclosed vascular injury-on-a-chip model provides a potential tool for evaluating these adverse effects, offering a complementary approach to animal models. Such features were tested using Hirudin and eptifibatide as model compounds representing anticoagulant and antiplatelet drugs, respectively. The disclosed subject matter was used to measure and compare the extent of injury-induced platelet and fibrin deposition when the disclosed devices were perfused with drug-containing whole blood. […] For quantitative analysis, we devised an injury closure score ranging between 0 and 2, which corresponds to fully open and fully closed, respectively. The hirudin-treated devices yielded an average score of […] the untreated control group scored 1.138. (FIG. 5E), indicating the adverse effects of Hirudin on the formation of competent hemostatic plugs.
Preparation of blood vessel-on-a-chip: Assembled devices were autoclaved for sterilization prior to cell culture. To increase the strength of interfacial adhesion between collagen gel and PDMS, dopamine hydrochloride (Sigma-Aldrich) solution (2.0 mg/mL w/v in 10 mM Tris-HCl buffer, pH 8.5) was injected into the middle compartment of the device and incubated for 2 hours at room temperature. Next, 6 mg/ml of rat-tail collagen type I containing 2.5% (v/v) lipidated tissue factor (Dade Innovin Reagent, Siemens) was introduced into the polydopamine-treated chamber and polymerized at 37° C. for 30 minutes. After gelation, HUVECs suspended in EGM-2 medium were seeded into the intravascular channel at a density of 1.6-1.8×10^6 cells/ml and allowed to settle and adhere to the surface of the collagen hydrogel by rotating the device by 90°. Following cell attachment, the device was perfused with medium to form a confluent endothelial monolayer. For TNF-a experiments, HUVECs were seeded on a tissue factor-free collagen gel and treated overnight with 1 ng/ml of TNF-a (Peprotech).
Healthy donor blood preparation: The blood was obtained via venipuncture into a syringe containing 3.8% sodium citrate (9:1) and 40 μg/ml of corn trypsin inhibitor (CTI). Right before perfusion through the device, the blood was recalcified (15 mM CaCl2) for 3 minutes. Fluorescently-labeled antibodies to detect platelets (a-CD61-568), P-selectin (a-CD62P-647), and fibrin (a-Fibrin-488) were added at a final concentration of 1 μg/ml. If inhibitors were used in the experiment, they were added in the recalcification step as well. The final concentration for eptifibatide acetate was 100 μM, and for Hirudin was 4 μg/ml.
Puncture injury and global hemostasis assessment: For precise spatial control of injury, a 30 G blunt needle was inserted between the two PM DS channel layers during device assembly and used as a sheath that guides the insertion of a microneedle. To induce puncture injury, either a 0.12 or 0.20 mm acupuncture needle was inserted into the guide needle and gently pushed towards the extravascular compartments in a controlled manner either to pierce through the endothelium and the entire thickness of the collagen hydrogel or to superficially injure the endothelial layer. Following injury, the intravascular and extravascular channels were perfused with recalcified blood and HBSS buffer (20 mM HEPES, 2 mM Ca2+), respectively using two independently controlled syringe pumps (Fusion 400, Chemyx & BS-8000 120 V, Braintree Scientific).
Fluorescently-labeled antibodies to CD61, P-selectin, and fibrin were added to the blood prior to perfusion through the microfluidic device to visualize platelet deposition, platelet activation, and fibrin accumulation. […]

Consider `N=C(N)NCCCC[C@@H]1NC(=O)CCSSC[C@@H](C(N)=O)NC(=O)[C@@H]2CCCN2C(=O)[C@H](Cc2c[nH]c3ccccc23)NC(=O)[C@H](CC(=O)O)NC(=O)CNC1=O` [eptifibatide] ([Mpa][hArg]GDWPC-NH2; disulfide 1-7), for which the “contraction of the vessel wall (matrix deformation, normalized injury area over time)” value (eptifibatide 100 μM) was “negligible contraction”. Further, the platelet activation result (eptifibatide 100 μM in whole blood) is “reduction”. The fibrin accumulation entry (eptifibatide 100 μM in whole blood, relative to control) is recorded as “did not change”. Where the note is “eptifibatide 100 μM in whole blood, vs control”, the platelet accumulation entry is on record as “markedly reduce”. For the same molecule, the “injury channel closure, compared with Hirudin” value (eptifibatide 100 μM vs Hirudin 4 μg/ml) was “to a greater extent than Hirudin”. Besides, the “state of the injury channel” value (eptifibatide 100 μM, confocal images) is listed as “remained open”. Also, for the setting “eptifibatide 100 μM, final time point”, the “injury score (0 fully open, 1 partially closed, 2 fully closed)” value was determined as 0.

On to Hirudin, for which, for the setting “Hirudin 4 μg/ml in whole blood, vs control”, the fibrin accumulation result is recorded as “drastically reduce”. The platelet accumulation entry (Hirudin 4 μg/ml in whole blood, vs control without the drug) is given as “no statistically significant changes”. Also, the platelet activation entry (Hirudin 4 μg/ml in whole blood, vs control without the drug, P-selectin MFI) is “no statistically significant changes”. For the same molecule, where the note is “Hirudin 4 μg/ml, confocal images”, the “state of the injury channel openings” value is on record as “intravascular end of the injury channel remained open, but platelet aggregates blocked the extravascular opening”. Also, the “injury closure (injury closure score 0-2, fully open to fully closed)” value (Hirudin 4 μg/ml, final time point) is listed as “inhibits”.
